This is an account of results in patent US20040082503A1, “Methods for treatment of diabetes using peptide analogues of insulin” (Neurocrine Biosciences, Inc., priority 1998, published 2004).

Several values for one entry are separate records, joined by “and”; a condition that tells them apart may be missing. Equal entries are not always repeated.

For test [1], the system named is Insulin B chain (9-23) specific murine T cell clone PD12-2.35. Put plainly: Proliferation of insulin B chain (9-23) specific murine T cell clone PD12-2.35. The following applies: clone PD12-2.35, 50 μM peptide, Exp. 1 and 2; for S.I. (Stimulation Index): cpm with peptide/cpm in medium alone. Type of test: cell-based, mouse (NOD). The protocol:
(§1) Insulin specific NOD T cell lines were established by culturing lymphocytes isolated from islet-infiltrating populations by in vitro stimulation with either porcine insulin at 25 μg/ml and irradiated NOD islet cell in the presence of irradiated NOD spleen cells as antigen presenting cells and cytokines. To obtain the infiltrating lymphocytes the following procedures were performed (see Wegmann et al., Eur. J. Immunol. 24:1853, 1994): the pancreas from the NOD mouse was digested with collagenase and individual islets were isolated manually. The infiltrating lymphocytes were then obtained by mild trypsin digestion of the islets. The insulin specific T cell lines or clones were propagated by serial stimulation in the presence of NOD spleen cells, porcine insulin and lymphokines. Clones were obtained by limiting dilution of the B chain (9-23) specific T cell lines in the presence of the antigen presenting cells and porcine insulin at 25 μg/ml. Wells with a growing population of cells following limiting dilution were expanded in appropriate medium, and after one cycle of growth were tested for reactivity to the B chain (9-23) peptide of insulin by evaluating the proliferative response.
(§2) Insulin B chain (9-23) (SEQ ID NO:2) specific mouse (NOD) T cell clones were isolated from infiltrated islets as described in Example 2. Peptide analogues with single alanine substitutions were prepared as described in Example 1. The effect of each analogue on T cell proliferation was then evaluated using an assay performed in 96-well flat bottom microtiter plates (see Daniel et al., Eur. J. Immunol. 25:1056, 1995). Briefly 25,000 T cell clones along with 1 million irradiated NOD spleen cells were cultured in the presence of 50 μg/ml of insulin B chain 9-23 peptide or any of the alanine substituted peptides listed below in triplicate sets. The plates were incubated for a total of 72 hours in 7% carbon dioxide atmosphere with a pulse of 1 μCi/well of tritiated thymidine for the last 6-8 hours of culture. Cells were harvested on a glass fiber filter and the associated radioactivity was counted in a liquid scintillation counter. Results are expressed as mean counts per minute of triplicate wells.
(§3) NOD T cell clones were incubated in the presence of 50 μM of either the native B chain (9-23) peptide or NBI-6024. The data in Table 3 represent the mean of triplicate sample±standard error of the mean. Within Table 3, S.I. (Stimulation Index)=proliferation (cpm) in the presence of the peptide/proliferation (cpm) in medium alone.

Test [2] deals with Murine NOD T cell clone PD12-2.40 response to insulin B chain (9-23) peptide. Kind of test: Antagonism of T cell proliferation assay, clone PD12-2.40. It counts as cell-based, mouse (NOD). The following applies: for % Inhibition: N/A = no inhibition observed. The protocol: Peptide analogues of B chain (9-23) containing alanine substitutions at residue 12, 13, 15 or 16 or the doubly substituted peptide at positions 16 and 19 (A^16,19; NBI-6024) were prepared as described in Example 1. T cell antagonism was detected by evaluating the ability of the peptide analogues to inhibit T cell proliferation induced by native B chain (9-23) (SEQ ID NO:2). In this assay, antigen presenting cells were first irradiated and then incubated with the competing peptide analogue and the native B chain (9-23) peptide. T cells were then added to the culture. Various concentrations of candidate peptide analogues were included in cultures which were incubated for a total of 4 days. Following this incubation period, each culture was pulsed with 1 μCi of [^3H]-thymidine for an additional 12-18 hours. Cultures were then harvested on fiberglass filters and counted as above. Mean CPM and standard error of the mean were calculated from data determined in triplicate cultures.
Within Table 4, the control peptide, NBI-5096, is an unrelated peptide from myelin basic protein. The percent inhibition was calculated as: (1−experimental cpm/insulin peptide cpm)×100%.

Test [3] deals with Insulin B chain (9-23) specific mouse (NOD) T cell clones. Kind of test: Proliferation of insulin-specific NOD T cell clones (summary over clones). The following applies: four NOD derived T cell clones; 50 μM peptide. Type of test: cell-based. The protocol: as §1, §2, §3
Test [4] has as its system lymph node and spleen cells from immunized NOD mice. Put plainly: Immunogenicity in NOD mice: proliferative response of lymph node/spleen cells of immunized mice. Type of test: cell-based, NOD mouse. The protocol: FIGS. 17A and 17B are graphs showing the ability of a double substituted peptide (A^16,19) to evoke an immune response. Five female NOD mice were immunized subcutaneously with 20 mg/kg of soluble NBI-6024 on days 1, 6 and 12. On day 15, the mice were sacrificed, the inguinal lymph node cells removed and culture in the presence of varying concentrations (0-50 μM) of either NBI-6024 (FIG. 17A) or insulin B chain (9-23) peptide (FIG. 17B). The extent of T-cell proliferation was determined using ^3H-thymidine incorporation. The response is expressed as mean CPM±SEM of triplicate cultures.
Groups of 3-4 NOD mice were immunized with 100-400 μg of peptide analogues subcutaneously in mannitol acetate buffer three times within a period of 10-15 days. Following the last immunization, lymph node cells and/or spleen cells were used in a proliferation assay in which different concentrations of the immunizing peptide were cultured with the cells for 3-4 days. The last 18 hours of culture included tritiated thymidine. Cells were harvested and counted in a scintillation counter and the response is expressed as CPM±SEM.
The ability of the double substituted peptide NBI-6024 (A^16,19) to induce a cellular immune response in NOD mouse strain was next determined. Two female NOD mice were immunized with 10 mg/kg NBI-6024 either as an aqueous suspension or, as a control, emulsified in complete Freund's adjuvant (CFA). On Day 8, three days following the last injection, the mice were sacrificed, the spleen and inguinal lymph node cells were removed and pooled, and a single-cell suspension was prepared. Cells were cultured in the presence of varying concentrations (0-25 μM) of NBI-6024. The ability of these lymphoid cells to proliferate in response to NBI-6024 was measured in vitro by [^3H]-thymidine incorporation.

The mark [5] stands for this setting: B(9-23) 5 μM + 10 μM competing peptide.
The mark [6] stands for this setting: B(9-23) 5 μM + 50 μM competing peptide.
Setting [7] is: T cells of Mouse #1 immunized with soluble NBI-6024, challenge peptide 1 μM, 0 μM 19,130 ± 2191.
The mark [8] stands for this setting: T cells of Mouse #1 immunized with soluble NBI-6024, challenge peptide 5 μM.
The mark [9] stands for this setting: T cells of Mouse #1 immunized with soluble NBI-6024, challenge peptide 25 μM.
The mark [10] stands for this setting: T cells of Mouse #2 immunized with soluble NBI-6024, challenge peptide 1 μM, 0 μM 21,588 ± 2326.
The mark [11] stands for this setting: T cells of Mouse #2 immunized with soluble NBI-6024, challenge peptide 5 μM.
[12] abbreviates: T cells of Mouse #2 immunized with soluble NBI-6024, challenge peptide 25 μM.
The mark [13] stands for this setting: T cells of Mouse #3 immunized with soluble NBI-6024, challenge peptide 1 μM, 0 μM 24,006 ± 2803.
Where [14] appears, read: T cells of Mouse #3 immunized with soluble NBI-6024, challenge peptide 5 μM.
Setting [15] is: T cells of Mouse #3 immunized with soluble NBI-6024, challenge peptide 25 μM.
The mark [16] stands for this setting: listed as Insulin B Chain (9-23).

For orientation: % Inhibition means how much of the control response was suppressed. Turning to “NBI-6024: insulin B chain 9-23 with alanine substitutions at positions 16 and 19 (SHLVEALALVAGERG)”, in test [1], the “Proliferative response, Mean cpm ± sem” value was 841 ± 88 cpm and 452 ± 179 cpm. In addition, in test [1], the “S.I. (Stimulation Index)” value was 1.22 and 0.91. Besides, the “CPM ± SEM” value is 6,379 ± 1,485 CPM in test [2] (setting [5]); 4,305 ± 941 CPM in test [2] (setting [6]); 48,319 ± 1918 CPM in test [4] (setting [7]); 160,673 ± 2269 CPM in test [4] (setting [8]); 268,005 ± 11198 CPM in test [4] (setting [9]); 54,519 ± 5666 CPM in test [4] (setting [10]). The “CPM ± SEM” value is listed as 126,123 ± 13851 CPM in test [4] (setting [11]); 202,707 ± 8125 CPM in test [4] (setting [12]); 64,239 ± 9493 CPM in test [4] (setting [13]); 140,836 ± 11778 CPM in test [4] (setting [14]); 240,278 ± 15015 CPM in test [4] (setting [15]). In addition, the “% Inhibition” value in test [2] (setting [5]) amounted to 30.0%; in test [2] (setting [6]), 52.9%. For the same substance, the “Proliferative response over medium only (background)” value in test [3] is “little or no proliferation over medium only (background)”. Further, the “Cross-reactive response to Insulin B chain (9-23)” value was “not seen” in test [4] (CFA-emulsified peptide) and “also responded to Insulin B chain (9-23)” in test [4] (lymphocytes from mice immunized with the soluble peptide). In addition, the “Proliferative response to challenge with the immunizing analogue” value in test [4] (lymph node cells from mice immunized with the analogue in CFA, dose-dependent) is “strong proliferative response”. Further, the “Proliferative response to NBI-6024 challenge in vitro” value in test [4] (spleen and inguinal lymph node cells after soluble administered peptide) is reported as “strong proliferative response”.
Regarding “Native 9-23: native peptide, residues 9-23 of human insulin B chain (SEQ ID NO:2) (SHLVEALYLVCGERG; Residues 9-23 of human insulin B chain; listed as Homo sapiens) [reference compound]”, the “Proliferative response, Mean cpm ± sem” value in test [1] (setting [16]) was 120,886 ± 7,171 cpm and 100,521 ± 1,581 cpm. Also, the “S.I. (Stimulation Index)” value in test [1] (setting [16]) is 175.7 and 203.89. Besides, the “CPM ± SEM” value in test [2] (B(9-23) 5 μM alone, medium only 305 ± 13) was 9,149 ± 1,062 CPM; in test [4] (setting [7]), 16,870 ± 4469 CPM; in test [4] (setting [8]), 21,292 ± 3216 CPM; in test [4] (setting [9]), 33,317 ± 3619 CPM; in test [4] (setting [10]), 17,262 ± 602 CPM; in test [4] (setting [11]) it was 19,648 ± 2169 CPM. Besides, the “CPM ± SEM” value in test [4] (setting [12]) is 30,612 ± 3557 CPM; in test [4] (setting [13]), 25,825 ± 3841 CPM; in test [4] (setting [14]) it was 58,567 ± 2737 CPM; in test [4] (setting [15]) it was 113,366 ± 515 CPM. Also, the “Proliferative response over medium only (background)” value in test [3] is reported as “significant response”.
